# Data published in patent US7713970B2, “Substituted cyclic urea derivatives” (FMC Corporation, priority 2004, dated 2010).
# Tested on: tobacco budworm (Heliothis virescens [Fabricius])
# Experiment: surface-treated diet test against tobacco budworm
# Assay type: in vivo
# Conditions: 0.25 millimolar candidate insecticide on the surface of the diet, second instar larvae, five-day exposure; for Percent Mortality: compared to total number of insects infested; for Percent Growth Inhibition: inhibition of insect weight relative to untreated controls
# Protocol: Candidate insecticides were evaluated for activity against the tobacco budworm (Heliothis virescens [Fabricius]) in a surface-treated diet test.
# In this test one mL of molten (65-70° C.) wheat germ-based artificial diet was pipetted into each well of a four by six (24 well) multi-well plate (ID# 430345-15.5 mm dia.×17.6 mm deep; Corning Costar Corp., One Alewife Center, Cambridge, Mass. 02140). The diet was allowed to cool to ambient temperature before treatment with candidate insecticide.
# For a determination of insecticidal activity, solutions of the candidate insecticides were prepared for testing using a Packard 204DT Multiprobe® Robotic System (Packard Instrument Company, 800 Research Parkway, Meriden, Conn. 06450), in which the robot first diluted a standard 50 millimolar DMSO solution of candidate insecticide with a 1:1 water/acetone solution (V/V) in a ratio of 1:7 stock solution to water/acetone. The robot subsequently pipetted 40 microliters of the so-prepared solution onto the surface of the diet in each of three wells in the 24 multi-well plate. The process was repeated with solutions of seven other candidate insecticides. Once treated, the contents of the multi-well plate were allowed to dry, leaving 0.25 millimoles of candidate insecticide on the surface of the diet, or a concentration of 0.25 millimolar. Appropriate untreated controls containing only DMSO on the diet surface were also included in this test.
# For evaluations of the insecticidal activity of a candidate insecticide at varying rates of application, the test was established as described above using sub-multiples of the standard 50 millimolar DMSO solution of candidate insecticide. For example, the standard 50 millimolar solution was diluted by the robot with DMSO to give 5, 0.5, 0.05, 0.005, 0.0005 millimolar, or more dilute solutions of the candidate insecticide. In these evaluations there were six replicates of each rate of application placed on the surface of the diet in the 24 multi-well plate, for a total of four rates of application of candidate insecticide in each plate.
# In each well of the test plate was placed one second instar tobacco budworm larvea, each weighing approximately five milligrams. After the larvae were placed in each well, the plate was sealed with clear polyfilm adhesive tape. The tape over each well was perforated to ensure an adequate air supply. The plates were then held in a growth chamber at 25° C. and 60% relative humidity for five days (light 14 hours/day).
# After the five-day exposure period insecticidal activity for each rate of application of candidate insecticide was assessed as percent inhibition of insect weight relative to the weight of insects from untreated controls, and percent mortality when compared to the total number of insects infested.
Compound,Percent Mortality,Percent Growth Inhibition
O=c1n(CCCCOc2c(Cl)cc(OCC=C(Cl)Cl)cc2Cl)nnn1Cc1ccc(Cl)cc1 [Compound 515],100%,100%
O=c1n(CCCCOc2c(Cl)cc(OCC=C(Cl)Cl)cc2Cl)nnn1Cc1ccc(Cl)cc1Cl [Compound 517],100%,100%
O=c1n(CCCCOc2c(Cl)cc(OCC=C(Cl)Cl)cc2Cl)nnn1Cc1ccc(Cl)c(Cl)c1 [Compound 520],0%,58%
O=c1n(CCCCOc2c(Cl)cc(OCC=C(Cl)Cl)cc2Cl)nnn1Cc1cc(Cl)cc(Cl)c1 [Compound 521],100%,100%
O=c1n(CCOc2c(Cl)cc(OCC=C(Cl)Cl)cc2Cl)nnn1Cc1ccccc1Cl [Compound 522],50%,100%
O=c1n(CCCOc2c(Cl)cc(OCC=C(Cl)Cl)cc2Cl)nnn1Cc1ccccc1Cl [Compound 523],100%,100%
O=c1n(Cc2ccc(C(F)(F)F)cc2)cnn1CCCCOc1c(Cl)cc(OCC=C(Cl)Cl)cc1Cl [Compound 546],100%,100%
O=c1n(Cc2ccc(C(F)(F)F)cc2)cnn1CCOc1c(Cl)cc(OCC=C(Cl)Cl)cc1Cl [Compound 548],100%,100%
O=C1CN(CCCCOc2c(Cl)cc(OCC=C(Cl)Cl)cc2Cl)C(=O)N1c1ccc(Cl)cc1 [Compound 576],100%,100%
O=C1C(=O)N(c2ccc(Cl)cc2)C(=O)N1CCCCOc1c(Cl)cc(OCC=C(Cl)Cl)cc1Cl [Compound 613],100%,100%
O=c1cnn(-c2ccc(Cl)c(Cl)c2)c(=O)n1CCCCOc1c(Cl)cc(OCC=C(Cl)Cl)cc1Cl [Compound 647],100%,100%
O=c1cnn(-c2ccc(Cl)cc2Cl)c(=O)n1CCCCOc1c(Cl)cc(OCC=C(Cl)Cl)cc1Cl [Compound 648],100%,100%
O=c1cnn(-c2cc(Cl)cc(Cl)c2)c(=O)n1CCCCOc1c(Cl)cc(OCC=C(Cl)Cl)cc1Cl [Compound 649],100%,100%
O=c1cnn(-c2cccc(Cl)c2)c(=O)n1CCCCOc1c(Cl)cc(OCC=C(Cl)Cl)cc1Cl [Compound 650],100%,100%
O=c1cnn(-c2ccc(Cl)cc2)c(=O)n1CCCCOc1c(Cl)cc(OCC=C(Cl)Cl)cc1Cl [Compound 651],100%,100%
O=c1cnn(-c2ccccc2Cl)c(=O)n1CCCCOc1c(Cl)cc(OCC=C(Cl)Cl)cc1Cl [Compound 652],100%,100%
O=c1cnn(-c2ccc(F)cc2F)c(=O)n1CCCCOc1c(Cl)cc(OCC=C(Cl)Cl)cc1Cl [Compound 653],100%,100%
COc1cc(-n2ncc(=O)n(CCCCOc3c(Cl)cc(OCC=C(Cl)Cl)cc3Cl)c2=O)ccc1Cl [Compound 654],100%,100%
COc1ccc(-n2ncc(=O)n(CCCCOc3c(Cl)cc(OCC=C(Cl)Cl)cc3Cl)c2=O)cc1 [Compound 655],100%,100%
O=c1cnn(-c2ccc(OC(F)F)cc2)c(=O)n1CCCCOc1c(Cl)cc(OCC=C(Cl)Cl)cc1Cl [Compound 656],100%,100%
O=c1cnn(-c2ccccc2)c(=O)n1CCCCOc1c(Cl)cc(OCC=C(Cl)Cl)cc1Cl [Compound 657],100%,100%
O=c1n(CCCCOc2cc(Cl)c(OCC=C(Cl)Cl)c(Cl)c2)nnn1-c1cccc(Cl)c1 [Compound 661],100%,100%
